Experimental data from patent US20090203780A1, “Use of a Polyunsaturated Fatty Acid Compound” (priority 2006, published 2009).

tested on: enteroendocrine STC1-1 cell line; experiment: not given; details: negative control fatty acid; cited from earlier work

Compound	Induction of CCK (already known)
CCCCCCCCCC(=O)O [Capric acid]	does not induce CCK

tested on: enteroendocrine STC1-1 cell line; experiment: CCK release from intestinal cells (in-vitro trial, CCK RIA); format: cell-based; design: CCK release (Effects of fatty acids on CCK release): unit not given here; details: 100 μM, 1 hour
Protocol: The relative CCK release by a number of different compounds was determined in an in-vitro trial to measure the effect of various free fatty acids on CCK release from intestinal cells.
The enteroendocrine STC1-1 cell line was cultivated at 37° C. in a 5% CO2, 95% air atmosphere in standard culture medium (DMEM). Cells were routinely passaged upon reaching 70-80% confluency by washing the cell layer with PBS and incubating with a solution of trypsin-EDTA. Plating density of 2×10^6 cells by 75 cm^2 was used for routine subculture.
STC1 cells were seeded into 6-well culture plates and incubated with control culture medium, with or without the tested agents, for 1 hour. All agents were tested at a 100 μM concentration in the free fatty acid form. Since fatty acids were diluted into ethanol the effect of ethanol was tested and indicated the baseline CCK levels. […] Effects of bombesin was used as positive control. At the end of incubation the supernatant was collected, centrifuged and immediately frozen at −20° C. for RIA.
Cell viability was checked by microscopic analysis using an MTT cytotoxicity assay, and in addition LDH release was measured.
CCK release was measured using a standard CCK RIA and effects of fatty acids were measured in 6-fold.

Compound	CCK release compared with other fatty acids (in words)
CCCCCC=CCC=CCC=CCC=CCCCC(=O)O [Arachidonic acid (20:4), 5,8,11,14-eicosatetraenoic acid]	higher level of CCK release than other related fatty acids

same assay, conditions: 100 microM, free fatty acid form, 1 hour incubation, RIA of supernatant, measured in 6-fold, ethanol baseline 53

Compound	CCK release (Effects of fatty acids on CCK release)
CCCCCC/C=C/C=C/CCCCCCCC(=O)O (single isomer, unassigned) [CLA 9, 11 isomer]	135
CCCCCC=CC=CCCCCCCCCC(=O)O (single isomer, unassigned) [CLA 10, 12 isomer]	133
CCCC/C=C/C=C/C=C\CCCCCCCC(=O)O [Alpha-eleostearic acid (18:3), Alpha-eleostearic acid]	212
CC/C=C\C/C=C\C/C=C\CCCCCCCC(=O)O [Alpha-linolenic acid (18:3), Alpha-linolenic acid]	177
CCCCCC=CCC=CCC=CCC=CCCCC(=O)O [Arachidonic acid (20:4), 5,8,11,14-eicosatetraenoic acid]	392
CCCCCCCCCC(=O)O [Capric acid]	43
CC/C=C\C/C=C\C/C=C\C/C=C\C/C=C\CCCC(=O)O [Eicosapentanoic acid (20:5), Eicosapentanoic acid]	164
CCCCC=CC=CC=CCCCCCCCC(=O)O [Gamma-eleostearic acid (18:3), Gamma-eleostearic acid]	126
CCCCC/C=C\C/C=C\C/C=C\CCCCC(=O)O [Gamma-linolenic acid (18:3), Gamma-linolenic acid]	140
CC/C=C\C/C=C\C/C=C\CCCC/C=C\CCCC(=O)O [Juniperonic acid (20:4), Juniperonic acid]	97
CCCCCCCCCCCC(=O)O [Lauric acid]	118
CCCCC/C=C\C/C=C\CCCCCCCC(=O)O [Linoleic acid (18:2), Linoleic acid]	68
CCCCCCCC/C=C\CCCCCCCC(=O)O [Oleic acid (18:1), Oleic acid]	90
CCCC\C=C/C=C/C=C\CCCCCCCC(=O)O [Punicic acid (18:3), Punicic acid]	320
CCCCC/C=C\C/C=C\CCCC/C=C\CCCC(=O)O [Sciadonic acid (20:3), Sciadonic acid]	79
CC/C=C\C/C=C\C/C=C\C/C=C\CCCCC(=O)O [Stearidonic acid (18:4), Stearidonic acid]	69
CCCCCCCC/C=C\CC/C=C\CCCC(=O)O [Taxoleic acid (18:2)]	82
conjugated linoleic acid [CLA]	87
